For this experiment, the target named is T1, Delta-5-Desaturase (D5D), membrane preparations of D5D-overexpressing HEK293 6E cells (Homo sapiens, UniProt O60427).
T1 construct: expressed in transfected cells; host or cells: HEK293 6E cells (membrane preparation)
T1 sequence (O60427 whole entry, species assumed): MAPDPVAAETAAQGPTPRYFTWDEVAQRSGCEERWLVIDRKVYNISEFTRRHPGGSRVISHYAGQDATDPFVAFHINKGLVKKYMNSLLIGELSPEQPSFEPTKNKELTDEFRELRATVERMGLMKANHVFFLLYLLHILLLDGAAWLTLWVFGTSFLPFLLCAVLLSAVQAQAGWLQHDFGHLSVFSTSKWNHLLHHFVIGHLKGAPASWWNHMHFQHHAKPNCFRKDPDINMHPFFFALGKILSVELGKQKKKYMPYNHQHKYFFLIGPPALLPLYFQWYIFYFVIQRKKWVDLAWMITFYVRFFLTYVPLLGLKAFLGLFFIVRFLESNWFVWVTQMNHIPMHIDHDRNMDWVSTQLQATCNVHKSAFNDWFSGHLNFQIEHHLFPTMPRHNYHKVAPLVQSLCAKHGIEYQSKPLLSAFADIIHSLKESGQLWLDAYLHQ
The experiment in a line: In vitro measurement of Delta-5-Desaturase inhibitory activity using DGLA-CoA and Arachidonyl-CoA mass spectrometric assays. It is filed as biochemical. The settings on record: D5D membrane 10 μg/mL, one-hour incubation, average of at least two independent runs. The method, then:
In Vitro Measurement of Delta-5-Desaturase Inhibitory Activity Using DGLA-CoA and Arachidonyl-CoA Mass Spectrometric Assays Membrane preparations of D5D-overexpressing HEK293 6E cells were prepared in which the total protein concentration was 5.6 mg/mL. Stock D5D membrane preparations were diluted in D5D assay buffer (25 mM 2-amino-2-(hydroxymethyl)-1,3-propanediol, pH 7.5 containing 10 mM MgCl2, 1 mM octyl glucoside (SigmaAldrich O-8001), 1 mM tris(2-carboxyethyl)phosphine hydrochloride (SigmaAldrich 646547)) to a final D5D membrane concentration of 10 μg/mL in an assay plate containing serially diluted test compounds. To 15 μL of this D5D preparation was added 15 μL of a substrate solution (0.25 mM NADH (nicotinamide adenine dinucleotide, Roche Diag. 10107735001), 0.25 mM adenosine triphosphate (SigmaAldrich A-3377), 0.05 mM coenzyme A hydrate (SigmaAldrich C-4282), and 0.01 mM DGLA (dihomo-g-linolenic acid, Sigma E-4504) in the same D5D assay buffer. After one-hour incubation at ambient temperature acetonitrile (30 μL) was added to quench the reaction and plates were centrifuged for 10 min @ 3,000 rpm. Mass spectrometric analysis involved a Rapidfire 360 SPE system coupled to an ABSciex API4000 Triple Quadrupole mass spectrometer using a C18 SPE cartridge (G9203-80105) with ionization in negative mode (solvent A=100% water; solvent B=100% acetonitrile, each solvent containing 5 mM ammonium acetate). DGLA-CoA and Arachidonyl-CoA were detected by multiple reaction monitoring (MRM) of the doubly charged parent ions at m/z 526.6 and 525.6, respectively. […] Sx is value from unknown sample, So is value from DMSO alone and Sc is value from no enzyme well. For CRC analysis, the % of inhibitions were analysed with 4 Parameter Logistic Model or Sigmoidal Dose-Response Model using XLfit (IDBS, Guilford, UK). The potency of the test item was expressed as IC50 nM, corresponding to the test item concentration able to inhibit the 50% of the enzyme maximal response. IC50 values were averaged values determined by at least two independent runs. The results presented in Table 15 have been generated with the in vitro assay described above. This assay may be used to test any of the compounds described herein to assess and characterize a compound's ability to inhibit D5D.
For the compound `Cc1cn2c(=O)c(-c3cnn(CC(F)(F)C(F)(F)F)c3)c(C(F)(F)F)nc2n1CC1COC1` [Example 90, 2-methyl-1-[(oxetan-3-yl)methyl]-6-[1-(2,2,3,3,3-pentafluoropropyl)-1H-pyrazol-4-yl]-7-(trifluoromethyl)-1H,5H-imidazo[1,2-a]pyrimidin-5-one], half-maximal inhibition (IC50) required 105 nM.
For `Cc1cn2c(=O)c(-c3cnn(CCC(F)(F)F)c3)c(C(F)(F)F)nc2n1CC#N` [Example 87, 2-[2-methyl-5-oxo-7-(trifluoromethyl)-6-[1-(3,3,3-trifluoropropyl)-1H-pyrazol-4-yl]-1H,5H-imidazo[1,2-a]pyrimidin-1-yl]acetonitrile] the value was 3.7 nM; for `Cn1ncn2c(=O)c(-c3cnn(CC(F)(F)C(F)(F)F)c3)c(C(F)(F)F)nc12` [Example 27, 1-methyl-6-[1-(2,2,3,3,3-pentafluoropropyl)-1H-pyrazol-4-yl]-7-(trifluoromethyl)-1H,5H-[1,2,4]triazolo[4,3-a]pyrimidin-5-one], 2.6 nM.
In turn, `O=c1c(-c2cnn(CC(F)(F)C(F)(F)F)c2)c(C(F)(F)F)nc2sccn12` [Example 1, 6-[1-(2,2,3,3,3-pentafluoropropyl)-1H-pyrazol-4-yl]-7-(trifluoromethyl)-5H-[1,3]thiazolo[3,2-a]pyrimidin-5-one] had an IC50 of 3.8 nM.
For the compound `O=c1c(-c2cnn(CCC(F)(F)F)c2)c(C(F)(F)F)nc2n1CCC2` [Example 21, 2-(trifluoromethyl)-3-[1-(3,3,3-trifluoropropyl)-1H-pyrazol-4-yl]-4H,6H,7H,8H-pyrrolo[1,2-a]pyrimidin-4-one], inhibition was half-maximal at 235 nM (IC50).
With `Cc1cn2c(=O)c(-c3cnn(CCC(F)(F)F)c3)c(C(F)(F)F)nc2n1C[C@H]1CC1(F)F` (single isomer, unassigned) [Example 116] the figure was 1170 nM; with `C[C@H]1Cn2c(nc(C(F)(F)F)c(-c3cnn(CC(F)(F)C(F)(F)F)c3)c2=O)S1` (single isomer, unassigned) [Example 113], 11.8 nM.
With `Cc1cn2c(=O)c(-c3cnn(CC(F)(F)C(F)(F)F)c3)c(C(F)(F)F)nc2n1CC1CC1` [Example 62, 1-(cyclopropylmethyl)-2-methyl-6-[1-(2,2,3,3,3-pentafluoropropyl)-1H-pyrazol-4-yl]-7-(trifluoromethyl)-1H,5H-imidazo[1,2-a]pyrimidin-5-one] the figure was 2.9 nM; with `COc1cn2c(=O)c(-c3cnn(CC(F)(F)C(F)(F)F)c3)c(C(F)(F)F)nc2n1C` [Example 71, 2-methoxy-1-methyl-6-[1-(2,2,3,3,3-pentafluoropropyl)-1H-pyrazol-4-yl]-7-(trifluoromethyl)-1H,5H-imidazo[1,2-a]pyrimidin-5-one], 32.8 nM.
With `Cc1nn2c(=O)c(-c3cnn(C[C@@H]4CC4(F)F)c3)c(C(F)(F)F)nc2s1` (single isomer, unassigned) [Example 112] the figure was 861 nM; with `Cc1cn2c(=O)c(-c3cnn(CCC(F)(F)F)c3)c(C(F)(F)F)nc2n1-c1ccccn1` [Example 94, 2-methyl-1-(pyridin-2-yl)-7-(trifluoromethyl)-6-[1-(3,3,3-trifluoropropyl)-1H-pyrazol-4-yl]-1H,5H-imidazo[1,2-a]pyrimidin-5-one], 777 nM; with `O=c1c(-c2cnn(CC(F)(F)C(F)(F)F)c2)c(C(F)(F)F)nc2n1CC1CC21` (centres unmarked) [Example 25, 8-[1-(2,2,3,3,3-pentafluoropropyl)-1H-pyrazol-4-yl]-9-(trifluoromethyl)-6,10-diazatricyclo[4.4.0.0^2,4]deca-1(10),8-dien-7-one], 354 nM.
On to `Cc1cn2c(=O)c(-c3cnn(CC(F)(F)C(F)(F)F)c3)c(C(F)(F)F)nc2n1CCN(C)C` [Example 84, 1-[2-(dimethylamino)ethyl]-2-methyl-6-[1-(2,2,3,3,3-pentafluoropropyl)-1H-pyrazol-4-yl]-7-(trifluoromethyl)-1H,5H-imidazo[1,2-a]pyrimidin-5-one], for which half-maximal inhibition (IC50) was put at 193 nM.
For `Cc1cn2c(=O)c(-c3ccc(OCC(F)(F)F)cc3)c(C(F)(F)F)nc2n1CCN(C)C` [Example 69, 1-[2-(dimethylamino)ethyl]-2-methyl-6-[4-(2,2,2-trifluoroethoxy)phenyl]-7-(trifluoromethyl)-1H,5H-imidazo[1,2-a]pyrimidin-5-one] the value was 13500 nM.
With `Cc1cn2c(=O)c(-c3cnn(CCC(F)(F)F)c3)c(C(F)(F)F)nc2n1C` [Example 53, 1,2-dimethyl-7-(trifluoromethyl)-6-[1-(3,3,3-trifluoropropyl)-1H-pyrazol-4-yl]-1H,5H-imidazo[1,2-a]pyrimidin-5-one] the figure was 6.4 nM; with `COCCn1c(C)cn2c(=O)c(-c3cnn(CC(F)(F)C(F)(F)F)c3)c(C(F)(F)F)nc12` [Example 57, 1-(2-methoxyethyl)-2-methyl-6-[1-(2,2,3,3,3-pentafluoropropyl)-1H-pyrazol-4-yl]-7-(trifluoromethyl)-1H,5H-imidazo[1,2-a]pyrimidin-5-one], 146 nM; with `Cc1cn2c(=O)c(-c3cnn(CC(F)(F)C(F)(F)F)c3)c(C(F)(F)F)nc2n1-c1cnn(C)c1` [Example 97, 2-methyl-1-(1-methyl-1H-pyrazol-4-yl)-6-[1-(2,2,3,3,3-pentafluoropropyl)-1H-pyrazol-4-yl]-7-(trifluoromethyl)-1H,5H-imidazo[1,2-a]pyrimidin-5-one], 29.3 nM.
As for `O=c1c(-c2cnn(CCC(F)(F)F)c2)c(C(F)(F)F)nc2sc(CO)nn12` [Example 46, 2-(hydroxymethyl)-7-(trifluoromethyl)-6-[1-(3,3,3-trifluoropropyl)-1H-pyrazol-4-yl]-5H-[1,3,4]thiadiazolo[3,2-a]pyrimidin-5-one], the IC50 was determined as 36.1 nM.
With `Cc1cn2c(=O)c(-c3cnn(CC(F)(F)C(F)(F)F)c3)c(C(F)(F)F)nc2n1CC(C)(C)O` [Example 88, 1-(2-hydroxy-2-methylpropyl)-2-methyl-6-[1-(2,2,3,3,3-pentafluoropropyl)-1H-pyrazol-4-yl]-7-(trifluoromethyl)-1H,5H-imidazo[1,2-a]pyrimidin-5-one] the figure was 631 nM; with `[2H]C([2H])([2H])n1c(C)cn2c(=O)c(-c3cnn(CCC(F)(F)F)c3)c(C(F)(F)F)nc12` [Example 78, 1-(^2H3)methyl-2-methyl-7-(trifluoromethyl)-6-[1-(3,3,3-trifluoropropyl)-1H-pyrazol-4-yl]-1H,5H-imidazo[1,2-a]pyrimidin-5-one], 28 nM.
For `CCOc1nc2sc(C)nn2c(=O)c1-c1cnn(CC(F)(F)C(F)(F)F)c1` [Example 41, 7-ethoxy-2-methyl-6-[1-(2,2,3,3,3-pentafluoropropyl)-1H-pyrazol-4-yl]-5H-[1,3,4]thiadiazolo[3,2-a]pyrimidin-5-one] the value was 877 nM; for `Cc1cn2c(=O)c(-c3cnn(CC(F)(F)C(F)(F)F)c3)c(C(F)(F)F)nc2n1CCC1(O)CC1` [Example 89, 1-[2-(1-hydroxycyclopropyl)ethyl]-2-methyl-6-[1-(2,2,3,3,3-pentafluoropropyl)-1H-pyrazol-4-yl]-7-(trifluoromethyl)-1H,5H-imidazo[1,2-a]pyrimidin-5-one], 53.3 nM; for `Cc1cn2c(=O)c(-c3cnn(CC(F)(F)C(F)(F)F)c3)c(C(F)(F)F)nc2n1C1COC1` [Example 91, 2-methyl-1-(oxetan-3-yl)-6-[1-(2,2,3,3,3-pentafluoropropyl)-1H-pyrazol-4-yl]-7-(trifluoromethyl)-1H,5H-imidazo[1,2-a]pyrimidin-5-one], 10.1 nM.
In turn, `Cn1nnn2c(=O)c(-c3cnn(CC(F)(F)C(F)(F)F)c3)c(C(F)(F)F)nc12` [Example 28, 3-methyl-6-[1-(2,2,3,3,3-pentafluoropropyl)-1H-pyrazol-4-yl]-5-(trifluoromethyl)-3H,7H-[1,2,3,4]tetrazolo[1,5-a]pyrimidin-7-one] returned an IC50 of 6 nM.
With `Cc1cc2nc(C(F)(F)F)c(-c3cnn(CC(F)(F)C(F)(F)F)c3)c(=O)n2n1C` [Example 16, 1,2-dimethyl-6-[1-(2,2,3,3,3-pentafluoropropyl)-1H-pyrazol-4-yl]-5-(trifluoromethyl)-1H,7H-pyrazolo[1,5-a]pyrimidin-7-one] the figure was 9410 nM; with `CN(C)Cc1nn2c(=O)c(-c3cnn(CC(F)(F)C(F)(F)F)c3)c(C(F)(F)F)nc2s1` [Example 105, 2-[(dimethylamino)methyl]-6-[1-(2,2,3,3,3-pentafluoropropyl)-1H-pyrazol-4-yl]-7-(trifluoromethyl)-5H-[1,3,4]thiadiazolo[3,2-a]pyrimidin-5-one], 10500 nM.

The record behind these values is patent US11512097B2, “Heterocyclic compounds as Delta-5 desaturase inhibitors and methods of use” (Amgen Inc., priority 2019, dated 2022).
